Measurements reported in patent US10738028B2, “Spiro three-membered ring, spiro five-membered ring peptide deformylase inhibitor and use thereof in antibacteria and anti-tumor” (priority 2016, dated 2020).
Values after ≈ are worked out from the molar mass of the structure shown.

Key:
[1] = test system: Enterococcus faecalis (EFA); experiment: MIC, two-fold agar dilution (CLSI), clinical isolates; format: cell-based
Outline: (§1)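 Following the American Clinical and Laboratory Standards Institute procedure, agar two-fold dilution served to determine minimum inhibitory concentrations.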

[2] = test system: Escherichia coli (including ESBLs, non-ESBLs); experiment: as above; format: cell-based
Outline: as §1

[3] = test system: methicillin-resistant Staphylococcus aureus (MRSA); experiment: as above; format: cell-based
Outline: as §1

[4] = test system: methicillin-resistant Staphylococcus epidermidis (MRSE); experiment: as above; format: cell-based
Outline: as §1

[5] = test system: methicillin-sensitive Staphylococcus aureus (MSSA); experiment: as above; format: cell-based
Outline: as §1

[6] = test system: methicillin-sensitive Staphylococcus epidermidis (MSSE); experiment: as above; format: cell-based
Outline: as §1

[7] = test system: HCT-116 colorectal cancer cell line; experiment: CCK-8 proliferation inhibition; format: cell-based; details: Homo sapiens, HCT-116, 72 h, read-out: HCT116 inhibition rate/%
Outline: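 Viability read-out: 1:10 diluted CCK-8 after 72 h compound exposure at 37 °C, 5% CO2. Cells (2000/well, McCoy's 5A plus 10% newborn bovine serum) pre-cultured overnight; vehicle control 1‰ DMSO.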

[8] = test system: methemoglobin in blood samples of three healthy volunteers; experiment: Toxicity on methemoglobin in vitro (whole blood with S9 and NADPH, absorbance at 630 nm); format: cell-based, human; details: 500 μM compound; whole blood + S9 + NADPH; 5 hours at 37° C.
Outline: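 Fresh EDTA whole blood from three healthy volunteers incubated 5 h at 37 °C with human liver S9 (2 mg/mL), NADPH-generating system and compound at 500 μM final. Lysed in 1% Triton X-100; MetHb % from 630 nm absorbance relative to ferricyanide-oxidized blood.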

the test strains = experiment: MIC against the test strains (strain not given); format: cell-based; details: read-out: MIC (azole amide bioisosteres)
Source text: 1. The invention adopts the two-fold agar dilution method recommended by the operating procedure of antimicrobial susceptibility testing set by American Clinical and Laboratory Standards Institute (CLSI) to determine the Minimum Inhibitory Concentration (MIC) of the test samples against the tested strains.

[9] = strain printed MRSA 14-1 (second line of that name, r23, before MRSE 14-2)

| SMILES | MIC (anti-bacterial activity) ([1]; strain EFA 14-1) | MIC (anti-bacterial activity) ([1]; strain EFA 14-2) | MIC (anti-bacterial activity) ([1]; strain EFA 14-3) | MIC (anti-bacterial activity) ([1]; strain EFA 14-5) | MIC (anti-bacterial activity) ([2]; strain ECO+ 14-1) | MIC (anti-bacterial activity) ([2]; strain ECO+ 14-2) | MIC (anti-bacterial activity) ([2]; strain ECO− 14-1) | MIC (anti-bacterial activity) ([2]; strain ECO− 14-2) | MIC (anti-bacterial activity) ([3]; strain MRSA 14-1) | MIC (anti-bacterial activity) ([3]; strain MRSA 14-2) | MIC (anti-bacterial activity) ([3]; strain MRSA 14-4) | MIC (anti-bacterial activity) ([3]; strain MRSA 14-5) | MIC (anti-bacterial activity) [3, 9] | MIC (anti-bacterial activity) ([4]; strain MRSE 14-2) | MIC (anti-bacterial activity) ([4]; strain MRSE 14-3) | MIC (anti-bacterial activity) ([4]; strain MRSE 14-4) | MIC (anti-bacterial activity) ([5]; strain MSSA 14-1) | MIC (anti-bacterial activity) ([5]; strain MSSA 14-2) | MIC (anti-bacterial activity) ([5]; strain MSSA 14-3) | MIC (anti-bacterial activity) ([5]; strain MSSA 14-4) | other results |
| --- | --- | --- | --- | --- | --- | --- | --- | --- | --- | --- | --- | --- | --- | --- | --- | --- | --- | --- | --- | --- | --- |
| CCCC[C@H](CN(O)C=O)C(=O)N1CC2(CC2)C[C@H]1c1nc2ccccc2[nH]1 [Example 10, N—((R)-2-((S)-6-(1H-benzimidazol-2-yl)-5-azaspiro[2.4]heptane-5-carbonyl)hexyl)-N-hydroxyformamide] | 8 µg/mL (≈ 20.8 µM) | 8 µg/mL (≈ 20.8 µM) | 8 µg/mL (≈ 20.8 µM) | 64 µg/mL (≈ 166 µM) | 0.5 µg/mL (≈ 1.3 µM) | 32 µg/mL (≈ 83.2 µM) | 32 µg/mL (≈ 83.2 µM) | 32 µg/mL (≈ 83.2 µM) | 1 µg/mL (≈ 2.6 µM) | 2 µg/mL (≈ 5.2 µM) | 2 µg/mL (≈ 5.2 µM) | 0.5 µg/mL (≈ 1.3 µM) | 1 µg/mL (≈ 2.6 µM) | 1 µg/mL (≈ 2.6 µM) | 0.5 µg/mL (≈ 1.3 µM) | 1 µg/mL (≈ 2.6 µM) | 2 µg/mL (≈ 5.2 µM) | 2 µg/mL (≈ 5.2 µM) | 2 µg/mL (≈ 5.2 µM) | 2 µg/mL (≈ 5.2 µM) | MIC (anti-bacterial activity) ([6]; strain MSSE 14-1): 0.5 µg/mL (≈ 1.3 µM); MIC (anti-bacterial activity) ([6]; strain MSSE 14-2): 2 µg/mL (≈ 5.2 µM); MIC (anti-bacterial activity) ([6]; strain MSSE 14-3): 0.5 µg/mL (≈ 1.3 µM); MIC (anti-bacterial activity) ([6]; strain MSSE 14-4): 2 µg/mL (≈ 5.2 µM); inhibition at 30 µM [7]: 10%; MetHb % (n = 3) [8]: 1.12 ± 0.01%; MIC (the test strains): 0.5 to 2 µg/mL (≈ 1.3 to 5.2 µM) |
| CCCC[C@H](CN(O)C=O)C(=O)N1CC2(CC2)C[C@H]1c1nc(-c2cccnc2)no1 [Example 11, N-hydroxy-N—((R)-2-((S)-6-(3-(pyridin-3-yl)-1,2,4-oxadiazol-5-yl)-5-azaspiro[2.4]heptane-5-carbonyl)hexyl)carboxamide] | 2 µg/mL (≈ 4.84 µM) | 2 µg/mL (≈ 4.84 µM) | 2 µg/mL (≈ 4.84 µM) | 2 µg/mL (≈ 4.84 µM) | 1 µg/mL (≈ 2.42 µM) | 32 µg/mL (≈ 77.4 µM) | 64 µg/mL (≈ 155 µM) | 64 µg/mL (≈ 155 µM) | 0.5 µg/mL (≈ 1.21 µM) | 0.5 µg/mL (≈ 1.21 µM) | 0.5 µg/mL (≈ 1.21 µM) | 0.5 µg/mL (≈ 1.21 µM) | 0.25 µg/mL (≈ 0.605 µM) | 0.25 µg/mL (≈ 0.605 µM) | 0.125 µg/mL (≈ 0.302 µM) | 0.5 µg/mL (≈ 1.21 µM) | 0.5 µg/mL (≈ 1.21 µM) | 0.5 µg/mL (≈ 1.21 µM) | 0.5 µg/mL (≈ 1.21 µM) | 0.5 µg/mL (≈ 1.21 µM) | MIC (anti-bacterial activity) ([6]; strain MSSE 14-1): 0.125 µg/mL (≈ 0.302 µM); MIC (anti-bacterial activity) ([6]; strain MSSE 14-2): 0.5 µg/mL (≈ 1.21 µM); MIC (anti-bacterial activity) ([6]; strain MSSE 14-3): 0.125 µg/mL (≈ 0.302 µM); MIC (anti-bacterial activity) ([6]; strain MSSE 14-4): 0.5 µg/mL (≈ 1.21 µM); inhibition at 30 µM [7]: 17%; MetHb % (n = 3) [8]: 1.26 ± 0.07%; MIC (the test strains): 0.5 to 2 µg/mL (≈ 1.21 to 4.84 µM) |
